The text below walks through data of patent US20200165194A1, “ADDITIVE COMPOSITION FOR CULTURE MEDIUM, ADDITIVE COMPOUND FOR CULTURE MEDIUM, AND METHOD FOR CULTURE OF CELLS OR TISSUE USING SAME” (NISSAN CHEMICAL CORPORATION, priority 2017, published 2020).

Common to all, as to assay type: cell-based
For test [1], the system named is SKOV3 cells (human ovarian cancer-derived cell line). In words: Cell proliferation activity in three-dimensional medium FCeM, ATP assay (Experimental Example 1). The conditions noted are these: SKOV3, 3D medium FCeM, 4 days, DMSO control = 100%, average of two tests. Here is the method:
A cell proliferation promoting effect when the compound to be used in the present invention was added to a three-dimensional medium was studied. Specifically, precultured (adhesion cultured) SKOV3 cells (human ovarian cancer-derived cell line) were recovered and suspended in a three-dimensional cell culture medium (“FCeM (registered trade mark)” (Nissan chemical corporation)) to prepare a cell suspension. […] The cell suspension seeded in the plate was stood overnight at 37° C., 5% CO2. Then, a DMSO diluted solution (4.44 μL) of the compound to be used in the present invention was added at a final concentration of 5 μM (or two steps of […] and 10 μM) (no stirring after addition). After addition of each compound, the mixtures were stood for 4 days at 37° C., 5% CO2. […] The luminescence intensity (RLU value) was measured by FlexStation3 (manufactured by Molecular Devices), and cell proliferation was evaluated.
The proliferation rate was calculated based on the control (cells added with DMSO without containing the compound to be used in the present invention) as the standard (100%). The values shown in the tables are average values of the results of two tests.

For the next test, the system named is CD34, CD73, CD29 of hMSC. In words: Human mesenchymal stem cells-1: cell surface markers by FACS after 3D culture (Experimental Example 9). The settings on record: for CD34+ (negative rate) / CD29+ (positive rate) / CD73+ (positive rate): hMSC after 3D culture, 10 μM, 7 days; for CD34+ (negative rate): no addition 0.9%; for CD29+ (positive rate): no addition 94.6%; for CD73+ (positive rate): no addition 99.9%; for undifferentiated state of hMSCs (in words): surface markers CD34, CD73, CD29 did not change. Here is the method: Human mesenchymal stem cells (hMSC, manufactured by TOYOBO) were precultured by a single layer culture method (2D) using an MF-medium mesenchymal stem cell proliferation medium (manufactured by TOYOBO). In three-dimensional culture method (3D), hMSC were suspended in a medium composition added with deacylated gellan gum, and seeded in a […] flat bottom Ultr-low Attachment surface plate (manufactured by Corning Incorporated, #3471) at 1.2×10^5 cells/2 mL/well. In 2D, hMSC were suspended in a deacylated gellan gum-free medium composition, and seeded in a 6-well flat bottom plate (manufactured by Corning Incorporated, #3516) at 4.0×10^4 cells/2 mL/well. […] As a control, DMSO was added at a final concentration of 0.1%. Seven days later, in the three-dimensional culture method, cells were collected from the wells, washed with PBS, and the supernatant was removed. Then, a trypsin 0.25 w/v % trypsin-1 mmol/L EDTA (ethylenediaminetetraacetic acid) solution (manufactured by Wako Pure Chemical Industries, Ltd.) was added and the cells were incubated at 37° C. for 2-5 min to disperse the spheres into single cells. The medium was added, and the mixture was centrifuged to remove the supernatant. Thereafter, the cells were resuspended in the same medium, a part was suspended in Trypan Blue (manufactured by Wako Pure Chemical Industries, Ltd.), and the number of viable cells was counted using automatic cell counter TC20 (manufactured by BIO-RAD).
CD34 antibody (APC, manufactured by BD Bioscience), CD73 (BV421, manufactured by BD Bioscience), CD29 (BB515, manufactured by BD Bioscience) were added to the above-mentioned cell suspension, and the mixture was incubated on ice for 30 min. The cells were washed twice with 2% SM buffer (2% FBS/PBS), SM containing 1 μg/mL of Propidium Iodide (PI) was added, and the mixture was analyzed with FACSAria (manufactured by Becton Dickinson). The cell number with compound non-addition (control) was taken as 1, and relative value with addition of each compound is calculated in the fifteenth table. The positive rates or negative rates of CD34, CD73, and CD29 of cells after three-dimensional culture (3D) under the conditions with no addition or addition of the compound are shown in the sixteenth table.

The test system of test [2] is Canine kidney renal tubule epithelial cells (MDCK cells). In words: MDCK cells-2: Cyst formation on Matrigel, size and number of Cysts (Experimental Example 8). The conditions noted are these: for proportion of Cysts of 70 μm or more: 6 days, control 35%; for Cyst morphology, confocal fluorescence microscope (in words): FIG. 1. Here is the method:
Canine kidney renal tubule epithelial cells (MDCK cells, manufactured by DS PHARMA BIO MEDICAL) were precultured in EMEM medium containing 10% FBS and 1% NEAA. Cold Matrigel (registered trade mark) Matrix GFR (manufactured by Corning) was spread on a 24-well plate by 50 μL and fixed by incubating at 37° C. for 15 min. The aforementioned MDCK cells were suspended in a medium at 10000 cells/mL, cold Matrigel (registered trade mark) Matrix GFR was added at 20 μL/mL and seeded at 1 mL/well. […] As a control (compound no-addition), DMSO was added at a final concentration of 0.1%. Six days later, the size and number of Cysts formed were measured using Cell^3iMager (manufactured by Screen Inc.). The proportion of the Cysts of 70 μm or more in the entire Cysts is shown in the fourteenth table.
The cells were washed with PBS (1 mL/well), 4% paraformaldehyde/PBS (manufactured by Wako Pure Chemical Industries, Ltd.) was added (1 mL/well) and fixed at room temperature for 20 min. Thereafter, the supernatant was removed, IF buffer (0.2% Triton X-100 (manufactured by Sigma-Aldrich), 0.05% Tween 20 (manufactured by Sigma-Aldrich)-containing PBS) were added at 1 mL/well, stood for 30 min and removed. Penetration buffer (0.5% Triton X-100 (manufactured by Sigma-Aldrich)/PBS) was added at 1 mL/well and incubated at room temperature for 30 min. The supernatant was removed, washed 3 times every 5 min with IF buffer, blocking buffer (1% BSA (manufactured by Sigma-Aldrich)/IF buffer) was added at 0.5 mL/well and incubated for 30 min. The supernatant was removed, an anti-P catenin antibody (manufactured by BD Bioscience) diluted 100-fold with blocking buffer was added at 250 μL/well, and the cells were incubated at room temperature for 60 min. The cells were washed 3 times every 5 min with IF buffer, the secondary antibody (Alexa Fluor 555, manufactured by Thermo Fisher Scientific) and Phalloidin (Alexa Fluor 488, manufactured by Thermo Fisher Scientific), each diluted 250-fold with blocking buffer, were added at 250 μL/well, and the cells were incubated at room temperature in shading for 60 min.

Structures are written as SMILES.

`CCC(=NNC(=O)C(CC)Nc1ccccc1)c1ccc(O)c(C)c1O` (stereo not shown) [k-1:H-7]: in test [1] (compound 5 μM), the “proliferation rate (%)” value came out at 236.46%. Moreover, in the test with CD34, CD73, CD29 of hMSC, the “CD34+ (negative rate)” value is 3%, the “CD29+ (positive rate)” value is given as 94.6%, the “CD73+ (positive rate)” value came to 100% and the “undifferentiated state of hMSCs (in words)” value was “promote cell proliferation while maintaining undifferentiated state of hMSCs”.

With `CC/C(=N\NC(=O)C(C)Nc1ccccc1)c1ccc(O)c(C)c1O` (stereo not shown) [k-1:B-1], in test [2], the “proportion of Cysts of 70 μm or more in the entire Cysts (in words)” value is given as “increased” and the “Cyst morphology, confocal fluorescence microscope (in words)” value is reported as “a normal Cyst was formed”. In addition, in test [2] (5 μM), the “proportion of Cysts of 70 μm or more” value is on record as 72%. For the same molecule, the “proportion of Cysts of 70 μm or more” value in test [2] (10 μM) is given as 68%.

Turning to `CC/C(=N\NC(=O)NCc1ccccc1)c1ccc(O)c(C)c1O` [k-1:I-1], in test [2], the “proportion of Cysts of 70 μm or more in the entire Cysts (in words)” value was “increased” and the “Cyst morphology, confocal fluorescence microscope (in words)” value is listed as “a normal Cyst was formed”. For the same molecule, the “proportion of Cysts of 70 μm or more” value in test [2] (5 μM) is 39%. Besides, the “proportion of Cysts of 70 μm or more” value in test [2] (10 μM) is recorded as 43%.

With `CC/C(=N\NC(=O)Nc1ccccc1)c1ccc(O)c(C)c1O` [k-1:H-10], in test [1] (5 μM), the “proliferation rate (%) (5 μM)” value amounted to 127.9%. The “proliferation rate (%) (10 μM)” value in test [1] (10 μM) amounted to 138.4%. Further, in the test with CD34, CD73, CD29 of hMSC, the “CD34+ (negative rate)” value worked out at 0.7%, the “CD29+ (positive rate)” value was 87.6%, the “CD73+ (positive rate)” value is given as 99.1% and the “undifferentiated state of hMSCs (in words)” value is “promote cell proliferation while maintaining undifferentiated state of hMSCs”.
